Consider one compound from patent publication US9750728B2, “Method and pharmaceutical composition for inhibiting PI3K/AKT/mTOR signaling pathway” (TARGETED THERAPEUTICS, LLC, priority 2012, dated 2017).

Entries after “also recorded” stand apart in the source; their conditions may differ.

One experiment relates to Panc-1. Description: Colony formation assay (clonogenic assay). Format: cell-based. The method, then:
1.2. Colony formation assay (clonogenic assay) was used to analyze the effect of ZPP or Y29794 on cancer cell survival. 10^3 Panc-1 cells were plated in 100 mm petri dish in triplicate fed with 10 ml of DMEM containing 10% FBS. The cells were then treated by ZPP for 7 days and cultured for additional three weeks. Cells were then rinsed three times with PBS, fixed with 100% ethanol for 15 min, and stained with 2% crystal violet ethanol solution. The stained colonies were counted. All the results are statistically analyzed by one way ANOVA and two tailed t-test.

For a further experiment, the system named is IRS-1. The experiment is described as follows: Immunoblot analysis of IRS-1 (protein, phosphorylation, half-life, p85 coimmunoprecipitation). Format: cell-based. The conditions noted are these: for rapamycin-induced increase in IRS-1: rapamycin 10 nM plus ZPP 200 μM or Y29794 0.5 μM, 24 hours. The method, then: 2.2 Immunoblot analysis of gene silencing of PRCP or PREP in cancer cells. Mouse anti-PRCP antibody was purchased from Abcam (Cambridge, Mass., USA). Goat anti-PREP antibody was purchased from R&D Systems (Minneapolis, Minn., USA). Mouse anti-R-actin antibody antibodies was from Santa Cruz Biotechnology (Santa Cruz, Calif., USA). Panc-1 pancreatic cancer cells and MCF7 breast cancer cells were cultured to 80% confluence, cells were rinsed three times with pre-cooled PBS, 500 μl of lysis buffer (150 mmol/L Nacl, 1% Triton-x-100, 50 mmol/l TrispH8.0, 1 mmol/L PMSF, 1 ug/L aprotinin, 1 ug/L leupeptin, 1 ug/L peptain) was added to the cells. Cells were scraped and transferred to a centrifuge tube with a pipette. The lysates were spun in a microcentrifuge at maximal speed for 10 minutes at 4° C. to get rid of the insoluble fraction. Protein concentration was determined by Bradford assay. For immunoprecipitation: 2-5 ug protein-specific antibodies were added to 250-500 ug of lysates in a tube and incubated on an ordital shaker 4° C. for 2-4 hours with moderate shaking, then 20 ul Protein G beads (Santa Cruz Biotechnology (Santa Cruz, Calif., USA.) were added and the mixture was incubated with moderate shaking for another hour. After washing the beads in lysis buffer five times, the immunoprecipitates were boiled in 2× Laemmli sample buffer (50 mmoL/L Tris-HCL (pH8.0), 100 mmoL/L DTT, 2% SDS, 0.1% bromophenol blue, 10% glycerol) for five minutes. The proteins were separated by conventional SDS-polyacrylamide gel electrophoresis (SDS-PAGE) electrophoresis and transferred to Amersham Hybond-P PVDF membrane (GE Company, Pittsburgh, Pa., USA). For immunoblot, the membrane was blocked in 2% BSA in TBST buffer (Tris 1.21 g+NaCl 5.84 g+800 ml H2O adjusted to pH 8.0 with HCl) for one hour and then incubated with primary antibodies in TBST at room temperature (22-25° C.) for 2 hours. After washing three times with TBST, the membrane was incubated with HRP-conjugated secondary antibodies for 0.5 hours at room temperature. After washing the membrane five times with TBST (5 minutes/each), the membrane was incubated with ECL chromogenic reagent (GE Company, Pittsburgh, Pa., USA) for 1-5 minutes. The blots were exposed to films in darkroom for 1-5 minute. The films were developed in an automatic X-OMAT Developer (KODAK, Rochester, N.Y., USA). […] PREP gene silencing (PREP KD) or PRCP gene silencing (PRCP KD) or gene silencing both PRCP and PREP (DKD) in MCF7 cells reduces expression of PREP and/or PRCP proteins compared with control cells (control) (FIGS. 6B & 6C).
3.2 AKT phosphorylation was examined by immunoblot as described in 3.1. IRS-1 expression was analyzed by immunoblot using anti-IRS-1 antibodies purchased from Santa Cruz Biotechnology (Santa Cruz, Calif., USA). Reduction in PRCP and/or PREP by gene silencing is shown by Western blot and quantitative PCR described in 2.2.
3.4 ZPP or Y29794 inhibits IRS-1 tyrosine phosphorylation and p85 PI3K subunit interaction with IRS-1 and PI3K kinase activity. Panc-1 cells were treated with ZPP (200 μM) or Y29794 (0.5 μM) for 24 hours. Lysates were immunoprecipitated with anti-IRS-1 antibodies and the anti-IRS-1 immunoprecipitates were used for PI3K kinase assay and anti-IRS-1 phospho-tyrosine and anti-p85 immunoblot analysis (FIG. 13). ZPP or Y29794 decreased IRS-1-associated PI3K activity (FIG. 13, upper) and tyrosine phosphorylation of IRS-1 and p85 (FIG. 13, lower).
As described in Example 2.2 and above, the cells with PRCP and PREP gene silencing were used for analysis of PRCP and PREP gene silencing and inhibition of serine phosphorylation and degradation of IRS-1 and its effects on response to rapamycin. […] Compared to control cells, DKD cells show […] serine phosphorylation (S307 and S636/639) of IRS-1 alongside with decreased tyrosine phosphorylation of IRS-1 (FIG. 18B). […]
(In general: A western blot detects proteins with antibodies after separation by electrophoresis.)

A further experiment concerns Panc-1 tumor. Description: Xenotransplanted Panc-1 pancreatic tumor growth in SCID mice. The class given is in vivo, SCID mice (BALB/C). Here is the method:
4-6 week-old male SCID mice (BALB/C) were purchased from Charles River laboratories (Wilmington, Mass., USA). Pane-1 cells at about 80% confluence were trypsinized with 0.25% trypsin and 0.02% EDTA. The cell suspension was centrifuged after addition of 10% FBS. 10^6 cells were resuspended in 100 μl PBS buffer containing 10% Matrigel, and injected with a 1-cc syringe with a 27-30 sized needle into the right flank of nude mice under anesthesia. After tumor formation (mean volume 50-60 mm^3) the mice were randomly divided into four groups (6 mice per group): control group, rapamycin treatment group, Y29794 treatment group, and Y29794 plus rapamycin treatment group. Rapamycin and Y29794 were dissolved in Cremophor formulation (20% Cremophor EL, 30% propylene glycol, 50% ethanol). Rapamycin (2 mg/kg body weight) was given by intraperitoneal injection one dose per week. Y29794 (20 mg/kg body weight) was administered by gavage five doses a week. Weekly measurements of tumor size (length, width and depth) and calculation of the tumor volume (½ larger diameter×(smaller diameter)) were carried until the control tumors reached 1000 mm^3.

Where [1] appears, read: Panc-1, 24 hours, ZPP 200 μM or Y29794 0.5 μM.

Regarding `CC(C)c1ccc(C(=O)c2cccs2)c(SCCCCCCCCN(C)C)n1` [Y29794, [2-[8-(dimethylamino)octylsulfanyl]-6-propan-2-ylpyridin-3-yl]-thiophen-2-ylmethanone], in the experiment with Panc-1 (Panc-1, Y29794 25 nM in combination with rapamycin), the “cell survival (colony formation)” value is “significantly (P<0.01) decreased”. The “cell colonies formed at 21 days, combination” value in the experiment with Panc-1 (Panc-1, various concentration of rapamycin with 25 nM Y29794, 7 days (FIG. 16C legend)) is “synergistic reduction”. The “rapamycin-induced increase in IRS-1” value with IRS-1 (MCF7) and with IRS-1 (Panc-1) was “blocked” throughout. Moreover, the “p85 coimmunoprecipitated with IRS-1” value with IRS-1 (setting [1]) is reported as “reduces; also recorded: decreased”. The “tyrosine phosphorylation of IRS-1 in anti-IRS-1 immunoprecipitates” value in the experiment with IRS-1 (setting [1]) was “reduces; also recorded: decreased”. Also, the IRS-1 protein entry in the experiment on IRS-1 (Panc-1, Y29794 1 μM (FIG. 19A, 19B)) was “reduces; also recorded: significantly reduced”. In the experiment on IRS-1 (Panc-1, Y29794 1 μM (FIG. 19B)), the “serine phosphorylation (S307 and S636/639) of IRS-1” value is recorded as “induces; also recorded: increased”. Further, in the experiment with IRS-1 (Panc-1, Y29794 1 μM with rapamycin (FIG. 19D)), the “rapamycin-induced increase in IRS-1 protein” value is reported as “inhibits; also recorded: not increased nor stabilized”. The “tumor growth (tumor volume), combination” value in the experiment on Panc-1 tumor (Y29794 20 mg/kg by gavage five doses a week plus rapamycin 2 mg/kg intraperitoneal one dose per week) was “synergistic effect; also recorded: inhibited tumor growth (P<0.01) more than Y29794 alone”. In addition, the “tumor growth (tumor volume)” value in the experiment on Panc-1 tumor (Y29794 alone, 20 mg/kg by gavage five doses a week, vs control group, 20 mg/kg) is given as “significantly reduces; also recorded: significantly inhibited”.
